Columns and labels:
Assay type in all cases: in vivo, human
[1] = tested on: axillary odor of volunteers with sweat bromidrosis; test: Measurement of axillary odor by sanitary cotton, graded by two medical doctors
From the text: 1) Sanitary cottons are kept in both armpits for ten minutes by two medical doctors' inspection of armpit odor for classification of 4 grades.
“minimal” is almost smell-less;
“mild” is available smell within distance of 15 cm;
“moderate” is further than distance of 15 cm; and
“severe” is beyond the distance of 30 cm.
(§1) Group I Test group with the composition of example 1
(§2) No one was allowed to use other cosmetics, perfume, and anti-germ soap not to influence any result.
Measurements of axillary odor were decided according to the smell degree by means of sanitary cotton, which were classified into four (4) grades. Namely, sanitary cottons are kept in both armpits for ten minutes by two medical doctors' inspection of armpit odor for classification of 4 grades as shown in the Table 1:
(2) Judgment of Results: After two (2) and four (4) weeks of the application of the composition, the odor grades were judged by means of sanitary cottons from both armpits of the participants.
Measurement of axillary ordor was carried out by two medical doctors by using sanitary cottons in order to evaluate objectively as shown below

[2] = Side-effects reported by the volunteers during the 4-week application; settings: 4 weeks, twice a day
[3] = tested on: sweat bromidrosis (axillary odor) of volunteers; test: Self-assessment of improvement of armpit odor by individual queries, 4 weeks of spraying twice a day; settings: after 4 weeks
From the text: 1. Application of Medical Treatment Composition of Example 1
2) Volunteers are selected from the group who can smell the ordor of sweat bromidrosis by sanitary cotton method and who smell over “mild” class.
3) Fifteen volunteers who were fitted for the above criteria and smell over “mild” class were selected.
as §1, §2
Subjective judgment of odor degree through individual queries, which include:
4) degrees of improvement of odor level during the period of application; and
D) Percentage of Improvement by Self-Assessment
The degree of improvement of ordor after 4 weeks were measured by self-assessment. All of 15 persons replied over 50% of improvement in the experimental group, while 10 persons in comparison group expressed positive improvement and four persons' replied negative.

[4] = 15 volunteers, objective odor grade
[5] = sprayed twice a day in armpit, 15 volunteers

## CCO [80% ethanol, ethanol]
[1]; 15 volunteers, after 4 weeks
  Degree of improvement: 1stage of improvement: 6 (40%) persons (%)
  Degree of improvement: 2 stage or more of improvement: 1 (7%) persons (%)
  Degree of improvement: no improvement: 8 (53%) persons (%)
[1]; [4]
  Initiating period of improvement: After 2 weeks: 1 (7%) persons (%)
  Initiating period of improvement: Not improved: 8 (53%) persons (%)
  Initiating period of improvement: Within 2 weeks: 6 (40%) persons (%)
[1]; after 4 weeks, out of 15
  Persons who showed improvement of odor grade: 7 persons
[1]; after 4 weeks, listed as Group II
  Persons among the improved who showed 2 stages or more of improvement: one and One
[1]; after two weeks application
  Persons among the improved with improvement after two weeks application: 6 persons
[2]
  Number and percentage of side-effect: No side-effect: 12 (80%) persons (%)
[2]; slight tingle feel right after application
  Number and percentage of side-effect: Side effect: 3 (20%) persons (%)
[3]; of 15
  Persons who expressed positive improvement (self-assessment): 10 persons
  Persons who replied negative (self-assessment): four
[3]; [5]
  Percentage of improvement by self-assessment: Got worse: 0 (0%) persons (%)
  Percentage of improvement by self-assessment: Improved 25%: 1 (7%) persons (%)
  Percentage of improvement by self-assessment: Improved 50%: 2 (13%) persons (%)
  Percentage of improvement by self-assessment: Improved 75%: 7 (47%) persons (%)
  Percentage of improvement by self-assessment: Improved 100%: 1 (7%) persons (%)
  Percentage of improvement by self-assessment: Not applicable: 4 (27%) persons (%)

Reference: patent US7749548B2, “Composite for the improvement of the smell of the armpit” (Ajou Medics Co., Ltd., priority 2004, dated 2010)
